# Source: patent publication US20210024507A1, “Compounds” (Step Pharma S.A.S., priority 2018, published 2021)
# Legend:
# [1] = system: human CTPS1; assay: RapidFire/MS-based enzyme selectivity assay, human CTPS1; type: biochemical; conditions: calculated from the CTPS1 and CTPS2 IC50 values
# In short: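 Full-length C-terminal FLAG-His-tagged human CTPS1 (1-591) was preincubated 10 minutes at 25° C. with compound in 50 mM HEPES pH 8.0, 20 mM MgCl2, 5 mM KCl, 1 mM DTT and 0.01% Tween-20. Substrate mix contained 0.3 mM ATP, 0.2 mM UTP, 0.07 mM GTP and 0.1 mM L-glutamine, and the reaction ran in its linear phase at 25° C. before formic acid stop. CTP was measured by RapidFire MS relative to ^13C9-^15N3-CTP, and IC50 came from percent inhibition curves.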
# [2] = target: T1, human CTPS1 (Homo sapiens, UniProt P17812); assay: Human CTPS1 enzyme inhibition (ADP-Glo Max assay); type: biochemical; conditions: human full length CTPS1, 25° C., read-out: CTPS1 (Human CTPS1 Enzyme Inhibition, IC50 grouped by potency range)
# T1 construct: purchased Proteros biostructures GmbH
# T1 sequence (P17812 1-591): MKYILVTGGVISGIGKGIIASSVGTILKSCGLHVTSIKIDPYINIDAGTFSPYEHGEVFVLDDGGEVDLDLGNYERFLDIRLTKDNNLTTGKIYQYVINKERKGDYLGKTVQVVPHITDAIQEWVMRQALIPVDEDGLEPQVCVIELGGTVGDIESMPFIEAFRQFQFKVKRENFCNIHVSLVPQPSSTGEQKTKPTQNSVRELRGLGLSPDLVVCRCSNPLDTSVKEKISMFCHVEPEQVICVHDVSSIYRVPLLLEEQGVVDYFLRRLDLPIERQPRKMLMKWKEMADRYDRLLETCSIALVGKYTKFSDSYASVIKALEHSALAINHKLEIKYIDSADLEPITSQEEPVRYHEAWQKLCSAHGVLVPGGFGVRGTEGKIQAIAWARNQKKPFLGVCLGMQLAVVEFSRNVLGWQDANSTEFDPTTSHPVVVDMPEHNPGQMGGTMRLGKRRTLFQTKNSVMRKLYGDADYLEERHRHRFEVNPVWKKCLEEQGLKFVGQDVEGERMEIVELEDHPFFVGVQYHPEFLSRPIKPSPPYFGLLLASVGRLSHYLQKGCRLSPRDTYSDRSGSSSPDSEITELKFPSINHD
# In short: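 Full-length C-terminal FLAG-His-tagged CTPS1, preincubated 10 min at 25 °C with compound in 50mM Tris pH 8.0, 10mM MgCl2, 0.01% Tween-20, 2mM L-cysteine. Started with ATP 0.31mM, GTP 0.034mM, UTP 0.48mM, L-glutamine 0.186mM in substrate mix, run within linear phase at 25 °C. ADP via ADP-Glo Max luminescence; IC50 from % inhibition curve.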
Selectivity (fold selectivity between CTPS1 and CTPS2) [1],IC50 [2],Structure (SMILES)
+++ (>60 fold (+++)),≤ 100 nM,"CCC(C(=O)Nc1ccc(-c2cncc(OCC(F)(F)F)n2)cc1)c1ccnc(NS(=O)(=O)C2CC2)n1 (stereo not drawn) [P108, 2-(2-(cyclopropanesulfonamido)pyrimidin-4-yl)-N-(4-(6-(2,2,2-trifluoroethoxy)pyrazin-2-yl)phenyl)butanamide]"
++ (>30-60 fold (++)),≤ 100 nM,"CCOc1cncc(-c2ccc(NC(=O)C(CCOC)c3ccnc(NS(=O)(=O)C4CC4)n3)cc2)n1 (stereo not drawn) [P110, 2-(2-(cyclopropanesulfonamido)pyrimidin-4-yl)-N-(4-(6-ethoxypyrazin-2-yl)phenyl)-4-methoxybutanamide]"
++ (>30-60 fold (++)),≤ 100 nM,"CCOc1cncc(-c2ccc(NC(=O)C(CC)c3cccc(NS(=O)(=O)C4CC4)n3)nc2)n1 (stereo not drawn) [P188, 2-(6-(cyclopropanesulfonamido)pyridin-2-yl)-N-(5-(6-ethoxypyrazin-2-yl)pyridin-2-yl)butanamide]"
++ (>30-60 fold (++)),100 to 1000 nM,"CCOc1cncc(-c2ccc(NC(=O)C(CC)c3cccc(NS(=O)(=O)C4CC4)n3)cc2)n1 (stereo not drawn) [P191, 2-(6-(cyclopropanesulfonamido)pyridin-2-yl)-N-(4-(6-ethoxypyrazin-2-yl)phenyl)butanamide]"
+++ (>60 fold (+++)),≤ 100 nM,"CCOc1cncc(-c2ccc(NC(=O)C(C)(CCOC)c3cncc(NS(=O)(=O)C4CC4)n3)nc2)n1 (stereo not drawn) [P198, 2-(6-(cyclopropanesulfonamido)pyrazin-2-yl)-N-(5-(6-ethoxypyrazin-2-yl)pyridin-2-yl)-4-methoxy-2-methylbutanamide]"
++ (>30-60 fold (++)),≤ 100 nM,"CCOc1cncc(-c2ccc(NC(=O)C(F)(CC)c3cncc(NS(=O)(=O)C4CC4)n3)nc2)n1 (stereo not drawn) [P200, 2-(6-(cyclopropanesulfonamido)pyrazin-2-yl)-N-(5-(6-ethoxypyrazin-2-yl)pyridin-2-yl)-2-fluorobutanamide]"
+++ (>60 fold (+++)),≤ 100 nM,"CCOc1cncc(-c2ccc(NC(=O)C(CC)c3cncc(NS(=O)(=O)C4CC4)n3)nc2)n1 (stereo not drawn) [P201, 2-(6-(cyclopropanesulfonamido)pyrazin-2-yl)-N-(5-(6-ethoxypyrazin-2-yl)pyridin-2-yl)butanamide]"
+++ (>60 fold (+++)),≤ 100 nM,"CCOc1cncc(-c2ccc(NC(=O)C(CC)c3cncc(NS(=O)(=O)C4CC4)n3)cc2)n1 (stereo not drawn) [P202, 2-(6-(cyclopropanesulfonamido)pyrazin-2-yl)-N-(4-(6-ethoxypyrazin-2-yl)phenyl)butanamide]"
+++ (>60 fold (+++)),≤ 100 nM,"CCOc1cncc(-c2ccc(C(=O)NC(CC)c3ccnc(NS(=O)(=O)C4CC4)n3)c(F)c2)n1 (stereo not drawn) [P216, N-(1-(2-(cyclopropanesulfonamido)pyrimidin-4-yl)propyl)-4-(6-ethoxypyrazin-2-yl)-2-fluorobenzamide]"
